Laboratory results: patent US6534448B1, “Composition and method for acidizing wells and equipment without damaging precipitation” (Halliburton Energy Services, Inc., priority 2000, dated 2003)

Assays:
[1] = in vivo
[2] = Amounts of electron transfer agents needed to reduce 2500 ppm ferric ion in less than five minutes (Example III); settings: 15 lbs./Mgal Na2MoO4 in 15% HCl, room temperature
Experimental: The above concentrations were arrived at from room temperature experiments.
Next, tests were conducted to determine the optimum amounts of the electron transfer agent(s) that should be employed in the inventive acidizing composition. Each test fluid included 1% by volume thioglycolic acid, based on the total volume of the acid solution and was contaminated with 2500 ppm ferric ion (by adding a sufficient amount of ferric chloride to the fluid).
These fluids also included the primary electron transfer agent, either sodium molybdate or ammonium molybdate. The amount the molybdate utilized was varied.
These fluids also included the primary electron transfer agent, either sodium molybdate or ammonium molybdate, and the supplemental electron transfer agent (potassium iodide). The amounts of the molybdate and potassium iodide utilized were varied.
The tests were carried out at room temperature. The test fluids were contaminated with 2500 ppm of ferric ion by adding a corresponding amount of iron chloride (FeCl3.H2O) thereto.
It was determined that a complete reduction had taken place when the test fluids changed back to the red-brown color.
It was determined that a complete reduction had taken place when the test fluids changed back to the emerald green color (verified by UV-VIS experiments).

[3] = test system: marine copepod Arcatia tonsa; experiment: Static 48 hour toxicity test on marine copepod (draft ISO 14669:1999(E)); assay type: in vivo; settings: test range 200.0 to 2000.0 mg l-1
Experimental: Test concentrations of sodium molybdate crystalline were prepared over the range 200.0 mg 1^−1 to 2000.0 mg 1^−1.

Structure (SMILES) | concentration found to be toxic [1] [ng/mL] | time required for reduction of 2500 ppm Fe(III) to Fe(II) [2] [min] | 24 hour EC50 (concentration which immobilized 50% of the copepods) ([3]; 24 hours) [µg/mL] | 48 hour EC50 (concentration which immobilized 50% of the copepods) ([3]; 48 hours) [µg/mL]
[Cl][Cu] [cuprous chloride] | ≥ 10 | – | – | –
[Na+].[Na+].[O]=[Mo](=[O])([O-])[O-] [sodium molybdate crystalline, sodium molybdate] | – | 2 to 3 | > 2000.0 | > 2000.0
